The source of these data is publication PMC6679423 (International Journal of Molecular Sciences, 2019).

Data set [1] has as its target CYP enzymes in human liver microsomes (Homo sapiens, UniProt P08684). Nature of the data set: Effects of inhibitors on N-desmethylvandetanib formation in human liver microsomes. To be noted: inhibitor 50 μM equimolar to vandetanib (50 μM), 0.1 nmol microsomal CYP. How it is done: (§1) After the incubations, 5 µL of 1 mM phenacetine (dissolved in methanol) was added as internal standard. The reaction was stopped by extraction with dichlormethane (2 × 1 mL).
(§2) Inhibition studies in human liver microsomes were essentially conducted as reported previously.
On the technique in general: Liver microsomes are a subcellular fraction often used to study metabolism.

In data set [2] the target is CYP enzymes in human liver microsomes (N-desmethylvandetanib formation) (Homo sapiens, UniProt P08684). The data set is described as above. To be noted: human, pH 7.4. As for the experimental part: as §1, §2
In data set [3] the target is T1, FMO in human liver microsomes (Homo sapiens, UniProt P31513).
T1 sequence (P31513 2-532): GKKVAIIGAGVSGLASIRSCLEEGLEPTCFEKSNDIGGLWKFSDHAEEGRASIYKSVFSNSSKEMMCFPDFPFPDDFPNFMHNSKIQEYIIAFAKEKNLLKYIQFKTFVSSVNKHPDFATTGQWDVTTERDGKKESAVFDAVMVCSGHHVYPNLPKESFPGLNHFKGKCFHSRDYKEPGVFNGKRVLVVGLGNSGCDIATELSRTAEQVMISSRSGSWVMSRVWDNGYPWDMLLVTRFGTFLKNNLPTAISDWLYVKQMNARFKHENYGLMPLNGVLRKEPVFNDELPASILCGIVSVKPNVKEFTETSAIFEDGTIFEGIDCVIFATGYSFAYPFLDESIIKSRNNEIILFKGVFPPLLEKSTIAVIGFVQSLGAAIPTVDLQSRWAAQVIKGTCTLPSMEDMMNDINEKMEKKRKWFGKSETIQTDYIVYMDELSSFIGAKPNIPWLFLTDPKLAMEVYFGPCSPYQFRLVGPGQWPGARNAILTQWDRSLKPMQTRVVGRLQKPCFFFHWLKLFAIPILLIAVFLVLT
The experiment in a line: Effects of inhibitors on vandetanib-N-oxide formation in human liver microsomes. The format is in vitro ADME. To be noted: inhibitor 50 μM equimolar to vandetanib (50 μM), 0.25 mg microsomal protein.

Each structure is given as a SMILES string.

Sequence of CYP enzymes in human liver microsomes (P08684 2-503): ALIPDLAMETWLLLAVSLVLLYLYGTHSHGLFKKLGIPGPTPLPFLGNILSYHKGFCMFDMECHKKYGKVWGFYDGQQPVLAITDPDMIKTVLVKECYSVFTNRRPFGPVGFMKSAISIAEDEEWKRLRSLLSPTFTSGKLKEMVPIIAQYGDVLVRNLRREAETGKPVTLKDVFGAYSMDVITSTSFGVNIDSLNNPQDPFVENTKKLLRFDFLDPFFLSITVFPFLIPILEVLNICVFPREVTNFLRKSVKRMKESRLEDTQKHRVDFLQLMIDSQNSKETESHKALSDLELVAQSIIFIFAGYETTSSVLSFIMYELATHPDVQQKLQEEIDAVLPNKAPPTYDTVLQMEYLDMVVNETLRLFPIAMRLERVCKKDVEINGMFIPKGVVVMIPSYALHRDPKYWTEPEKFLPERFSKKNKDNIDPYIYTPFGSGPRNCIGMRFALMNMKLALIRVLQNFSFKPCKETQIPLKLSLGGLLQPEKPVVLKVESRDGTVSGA
Sequence of CYP enzymes in human liver microsomes (P16435 2-677, further chain): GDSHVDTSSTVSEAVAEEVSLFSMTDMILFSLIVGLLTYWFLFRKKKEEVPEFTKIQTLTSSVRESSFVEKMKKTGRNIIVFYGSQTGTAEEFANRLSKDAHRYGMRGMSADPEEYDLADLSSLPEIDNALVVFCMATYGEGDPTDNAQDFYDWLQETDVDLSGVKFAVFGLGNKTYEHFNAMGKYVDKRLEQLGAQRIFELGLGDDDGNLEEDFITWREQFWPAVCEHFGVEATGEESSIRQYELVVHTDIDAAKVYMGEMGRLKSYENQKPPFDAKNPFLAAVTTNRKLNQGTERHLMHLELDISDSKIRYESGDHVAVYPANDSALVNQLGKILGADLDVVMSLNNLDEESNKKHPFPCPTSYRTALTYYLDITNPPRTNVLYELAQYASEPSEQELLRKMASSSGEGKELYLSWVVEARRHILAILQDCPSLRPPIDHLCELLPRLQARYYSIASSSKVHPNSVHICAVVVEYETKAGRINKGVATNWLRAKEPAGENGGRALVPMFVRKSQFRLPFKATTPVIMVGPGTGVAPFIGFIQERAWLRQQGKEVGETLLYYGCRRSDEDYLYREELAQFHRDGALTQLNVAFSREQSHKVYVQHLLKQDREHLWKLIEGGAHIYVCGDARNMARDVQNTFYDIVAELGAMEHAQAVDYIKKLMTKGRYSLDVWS
Sequence of CYP enzymes in human liver microsomes (N-desmethylvandetanib formation) (P08684 2-503): as the sequence (P08684 2-503) above
Sequence of CYP enzymes in human liver microsomes (N-desmethylvandetanib formation) (P16435 2-677, further chain): as the sequence (P16435 2-677, further chain) above

Usually inhibition stands for how much of the control response was suppressed. Regarding `CCN(CC)C(=S)S` [DDTC, diethyldithiocarbamate], the “% of Inhibition, N-Desmethyvandetanib Formation” value in data set [1] is “no inhibitory effects”. For the same molecule, the inhibition at 20 min, 50 µM in data set [2] is 0%. Also, the “% of Inhibition, Vandetanib-N-oxide Formation” value in data set [3] is listed as “no inhibition”.

Regarding `C1C2CC3C4CC5CC(C14)C(C2)C3C5` [Diamantane, diamantane], the “% of Inhibition, N-Desmethyvandetanib Formation” value in data set [1] is reported as 0%; in data set [1] (listed as diamantane) it was “no inhibitory effects”.

Consider `Nc1ccc(S(=O)(=O)Nc2ccnn2-c2ccccc2)cc1` [Sulfaphenazole, sulfaphenazole], for which, in data set [2], the inhibition at 20 min, 50 µM was determined as 38 ± 4% and the inhibition at 20 min, 500 µM is less than 50%.
